Results on three compounds are retold here after patent publication US20100004301A1, “Benzoxazoles Useful in the Treatment of Inflammation” (priority 2006, published 2010).

The test has as its target T1, mPGES-1 (Homo sapiens, UniProt O14684).
T1 construct: made in house; host or cells: E. coli
T1 sequence (O14684 1-152): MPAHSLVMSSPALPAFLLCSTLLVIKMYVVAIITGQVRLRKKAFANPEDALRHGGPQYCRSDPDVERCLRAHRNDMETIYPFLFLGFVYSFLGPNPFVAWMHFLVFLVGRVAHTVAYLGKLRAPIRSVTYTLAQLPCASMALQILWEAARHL
As to the kind of experiment: mPGES-1 enzyme assay (conversion of PGH2 to PGE2, HPLC analysis). Format: biochemical. Conditions: mPGES-1 expressed in E. coli, membrane fraction; 25 min preincubation, 60 s PGH2 reaction, room temperature. On the procedure:
In the assay mPGES-1 catalyzes the reaction where the substrate PGH2 is converted to PGE2. mPGES-1 is expressed in E. coli and the membrane fraction is dissolved in 20 mM NaPi-buffer pH 8.0 and stored at −80° C. In the assay mPGES-1 is dissolved in 0.1M KPi-buffer pH 7.35 with 2.5 mM glutathione. The stop solution consists of H2O/MeCN (7/3), containing FeCl2 (25 mM) and HCl (0.15 M). The assay is performed at room temperature in 96-well plates. Analysis of the amount of PGE2 is performed with reversed phase HPLC (Waters 2795 equipped with a 3.9×150 mm C18 column). The mobile phase consists of H2O/MeCN (7/3), containing TFA (0.056%), and absorbance is measured at 195 nm with a Waters 2487 UV-detector.
The following is added chronologically to each well: • 1. 100 μL mPGES-1 in KPi-buffer with glutathione. Total protein concentration: 0.02 mg/mL. • 2. 1 μL inhibitor in DMSO. Incubation of the plate at room temperature for 25 minutes. • 3. 4 μL of a 0.25 mM PGH2 solution. Incubation of the plate at room temperature for 60 seconds. • 4. 100 μL stop solution. • 180 μL per sample is analyzed with HPLC.
In turn, `CC(C)Oc1ccc(-c2ccc3oc(-c4cc(NS(=O)(=O)c5cc(Cl)ccc5Cl)ccc4Cl)nc3c2)cc1` [Example 4, 2,5-Dichloro-N-{4-chloro-3-[5-(4-isopropoxyphenyl)benzoxazol-2-yl]phenyl}benzenesulfonamide] displayed an IC50 of 0.6 µM. Consider `Cc1cc(C)cc(-c2cc(-c3nc4cc(C)ccc4o3)cc(NC(=O)c3ccccc3C(F)(F)F)c2N)c1` [Example 5, N-[2-Amino-3′,5′-dimethyl-5-(5-methylbenzoxazol-2-yl)biphenyl-3-yl]-2-trifluoromethylbenzamide], for which the IC50 came to 0.13 µM. The value for `CC(C)(C)c1ccc2oc(-c3cc(COc4cccc(Cl)c4)cc(NC(=O)c4ccccc4C(F)(F)F)c3)nc2c1` [Example 7, N-[3-(5-tert-Butylbenzoxazol-2-yl)-5-(3-chlorophenoxymethyl)phenyl]-2-trifluoromethylbenzamide] was 0.27 µM.
